SMILES strings stand for the structures. Read-outs that look alike come from different tables or passages of the source.

One data set addresses N-type calcium channel (Rattus norvegicus, UniProt Q02294). As to conditions: PC12 cells, 25-200 mM ethanol for 2-8 days; cited from earlier work.
Data set [1] has as its system Cav2.2 null mice and wild-type littermates. Particulars: solutions containing 6% or 10% ethanol.
Data set [2] concerns Cav2.2 null mice and wild-type mice. As for the experimental part: See Example 2. Mice were injected intraperitoneally with saline and placed in the central, access chamber of a three-chambered apparatus. The door to a second chamber (saline-paired chamber), off the central chamber, was then opened to allow mice access to the second chamber, into which the mice entered. The door was then closed and the mice remained in the second chamber for 5 min before being removed and returned to the home cage. On the following day, the procedure was repeated, except that the mice were given an intraperitoneal injection of ethanol (at the doses indicated in FIG. 2) and allowed to enter, by the same procedure as for the saline-paired side, a third chamber (drug-paired chamber), instead of the saline-paired chamber. The ethanol and saline-paired chambers differed in floor texture and wall color. Drug-paired and saline-paired chambers were assigned randomly, i.e., some mice received ethanol in the same type of chamber in which other mice received saline. This process, saline one day and ethanol the next, was then repeated three times further, resulting in a total of four saline/drug-chamber pairings. On the day immediately following the completion of this 8-day training period, the mice were placed into the central chamber and allowed free access to all three chambers for a total of 30 minutes. Time spent in each of the three chambers was analyzed for each genotype by paired two-tailed t-tests with Bonferroni correction for multiple comparisons. […] To control for a baseline preference for a particular chamber type, all mice received a 30-min test in the chambers prior to training.
Mice were trained in a conditioned place preference (CPP) apparatus (Med Associates, St. Albans, Vt.) that consisted of white and black chambers with different floor textures (black side with rod floor vs. white side with grid floor) that were separated by a central gray access compartment. To measure baseline preference for the test chambers, mice were allowed to roam freely in the entire apparatus for 30 min during the first day of the test. […] The ethanol-paired chamber was assigned randomly across subjects. For conditioning, mice were treated with ethanol (1.2, 2.0, or 2.8 grams/kg v/v in 0.9% saline) and immediately placed in one side for 5 min. On the next day, they were injected with an equivalent volume of saline and placed in the other side. This sequence was repeated four times for a total of 4 days ethanol and 4 days saline, with two rest days halfway through training. On the test day immediately following the final training day, mice were allowed free access to all 3 compartments for 30 min. CPP was assessed by comparing the time spent in the drug-paired chamber on the test day with the time spent in the saline-paired chamber and the central chamber on the test day by paired two-tailed t-tests with Bonferroni correction for multiple comparisons. The mice were considered to have developed CPP for ethanol if they spent more time in the ethanol-paired chamber compared with the other two chambers on the test day.

The test system of data set [3] is Cav2.2 null mice and wild-type littermates. As for the experimental part: Both groups of mice were injected intraperitoneally with ethanol (3.6 g/kg in 0.9% w/v saline) and then assessed for loss of the righting reflex (LORR). Loss of the righting reflex was defined as a mouse being unable to right itself 3 times within 30 sec. Upon losing the righting reflex, mice were placed on their backs and the time taken for them to regain the righting reflex was measured. A mouse was defined as having regained the righting reflex when it was able to right itself 3 times within 30 sec. A blood sample was taken from the tail of each mouse when it regained the righting reflex in order to determine blood ethanol concentration. Blood was centrifuged at 10,000 g and serum blood alcohol concentration determined using an Analox AM-1 analyser (Analox Instruments, Luneburg Mass.). We determined the threshold concentration of ethanol required to induce LORR using the “up-and-down” method (Dixon, 1965; Findlay et al., 2002). […] If the first mouse lost the righting reflex, then the next mouse was given a lower ethanol dose. […] The log dose interval was 0.0138, corresponding to approximately a 0.1 g/kg difference between doses. The ED50 value was determined as described (Findlay et al., 2002), with 95% confidence intervals determined by the following equation: 95% CI=dosing increment×square root of (2/n)×1.96, where n=the last n trials (6) and 1.96 reflects the 0.05 α level (Dixon, 1965).

Data set [4] concerns Cav2.2 null mice and littermates. Particulars: alcohol vapor 3 days, 16 hours per day; Cav2.2 null vs littermates.
Protocol: Handling-induced convulsions (HIC) were measured at various intervals over the next 48 hours.
The conditions of data set [5]: 4 g/kg ethanol i.p., Cav2.2 null vs wild-type.
The test system of data set [6] is Cav2.2 null mice and wild-type littermates. Particulars: 2 g/kg ethanol i.p., Cav2.2 null vs wild-type. The protocol: Mice were trained to remain for 180 s on a rotarod apparatus (Ugo Basile Biological Research, Varese, Italy) rotating at a fixed rate of 20 rpm. The first test session was carried out the following day. During a test session, each mouse was placed on the rotarod and the time taken for the animal to fall off the rod was recorded. Mice were then injected intraperitoneally with ethanol and re-tested every 15 min for 1 h. […] Three further days later, the mice were trained to remain on an accelerating (4-40 rpm) rotarod for 300s.

The test system is the same in data set [7]. The protocol:
The conditioned taste aversion study was carried out according to established protocols ([…] and Boyce, 2002) (Chester et al., 2003). Animals were singly housed and acclimatized to limited water access by allowing them access to water for decreasing periods of time (10, 8, 6 and 4 h per day on subsequent days) followed by 2-h daily access for one week. Following acclimatization, they were placed on the conditioning schedule consisting of 1-h access (13:00 to 14:00h) to the conditioned stimulus (CS, a solution of 1.2% (w/v) saline), followed immediately by a saline (0.9% w/v) injection. […] The following day they were allowed two hours of access to drinking water (13:00 to 15:00). This 2-d procedure constituted a single trial and was repeated 7 times to establish baseline consumption levels of 1.2% NaCl. […] Data were compared by two-way ANOVA with factors for injection and genotype.
This is another data set of the same source.

Sequence of N-type calcium channel (Q02294 whole entry, looked up): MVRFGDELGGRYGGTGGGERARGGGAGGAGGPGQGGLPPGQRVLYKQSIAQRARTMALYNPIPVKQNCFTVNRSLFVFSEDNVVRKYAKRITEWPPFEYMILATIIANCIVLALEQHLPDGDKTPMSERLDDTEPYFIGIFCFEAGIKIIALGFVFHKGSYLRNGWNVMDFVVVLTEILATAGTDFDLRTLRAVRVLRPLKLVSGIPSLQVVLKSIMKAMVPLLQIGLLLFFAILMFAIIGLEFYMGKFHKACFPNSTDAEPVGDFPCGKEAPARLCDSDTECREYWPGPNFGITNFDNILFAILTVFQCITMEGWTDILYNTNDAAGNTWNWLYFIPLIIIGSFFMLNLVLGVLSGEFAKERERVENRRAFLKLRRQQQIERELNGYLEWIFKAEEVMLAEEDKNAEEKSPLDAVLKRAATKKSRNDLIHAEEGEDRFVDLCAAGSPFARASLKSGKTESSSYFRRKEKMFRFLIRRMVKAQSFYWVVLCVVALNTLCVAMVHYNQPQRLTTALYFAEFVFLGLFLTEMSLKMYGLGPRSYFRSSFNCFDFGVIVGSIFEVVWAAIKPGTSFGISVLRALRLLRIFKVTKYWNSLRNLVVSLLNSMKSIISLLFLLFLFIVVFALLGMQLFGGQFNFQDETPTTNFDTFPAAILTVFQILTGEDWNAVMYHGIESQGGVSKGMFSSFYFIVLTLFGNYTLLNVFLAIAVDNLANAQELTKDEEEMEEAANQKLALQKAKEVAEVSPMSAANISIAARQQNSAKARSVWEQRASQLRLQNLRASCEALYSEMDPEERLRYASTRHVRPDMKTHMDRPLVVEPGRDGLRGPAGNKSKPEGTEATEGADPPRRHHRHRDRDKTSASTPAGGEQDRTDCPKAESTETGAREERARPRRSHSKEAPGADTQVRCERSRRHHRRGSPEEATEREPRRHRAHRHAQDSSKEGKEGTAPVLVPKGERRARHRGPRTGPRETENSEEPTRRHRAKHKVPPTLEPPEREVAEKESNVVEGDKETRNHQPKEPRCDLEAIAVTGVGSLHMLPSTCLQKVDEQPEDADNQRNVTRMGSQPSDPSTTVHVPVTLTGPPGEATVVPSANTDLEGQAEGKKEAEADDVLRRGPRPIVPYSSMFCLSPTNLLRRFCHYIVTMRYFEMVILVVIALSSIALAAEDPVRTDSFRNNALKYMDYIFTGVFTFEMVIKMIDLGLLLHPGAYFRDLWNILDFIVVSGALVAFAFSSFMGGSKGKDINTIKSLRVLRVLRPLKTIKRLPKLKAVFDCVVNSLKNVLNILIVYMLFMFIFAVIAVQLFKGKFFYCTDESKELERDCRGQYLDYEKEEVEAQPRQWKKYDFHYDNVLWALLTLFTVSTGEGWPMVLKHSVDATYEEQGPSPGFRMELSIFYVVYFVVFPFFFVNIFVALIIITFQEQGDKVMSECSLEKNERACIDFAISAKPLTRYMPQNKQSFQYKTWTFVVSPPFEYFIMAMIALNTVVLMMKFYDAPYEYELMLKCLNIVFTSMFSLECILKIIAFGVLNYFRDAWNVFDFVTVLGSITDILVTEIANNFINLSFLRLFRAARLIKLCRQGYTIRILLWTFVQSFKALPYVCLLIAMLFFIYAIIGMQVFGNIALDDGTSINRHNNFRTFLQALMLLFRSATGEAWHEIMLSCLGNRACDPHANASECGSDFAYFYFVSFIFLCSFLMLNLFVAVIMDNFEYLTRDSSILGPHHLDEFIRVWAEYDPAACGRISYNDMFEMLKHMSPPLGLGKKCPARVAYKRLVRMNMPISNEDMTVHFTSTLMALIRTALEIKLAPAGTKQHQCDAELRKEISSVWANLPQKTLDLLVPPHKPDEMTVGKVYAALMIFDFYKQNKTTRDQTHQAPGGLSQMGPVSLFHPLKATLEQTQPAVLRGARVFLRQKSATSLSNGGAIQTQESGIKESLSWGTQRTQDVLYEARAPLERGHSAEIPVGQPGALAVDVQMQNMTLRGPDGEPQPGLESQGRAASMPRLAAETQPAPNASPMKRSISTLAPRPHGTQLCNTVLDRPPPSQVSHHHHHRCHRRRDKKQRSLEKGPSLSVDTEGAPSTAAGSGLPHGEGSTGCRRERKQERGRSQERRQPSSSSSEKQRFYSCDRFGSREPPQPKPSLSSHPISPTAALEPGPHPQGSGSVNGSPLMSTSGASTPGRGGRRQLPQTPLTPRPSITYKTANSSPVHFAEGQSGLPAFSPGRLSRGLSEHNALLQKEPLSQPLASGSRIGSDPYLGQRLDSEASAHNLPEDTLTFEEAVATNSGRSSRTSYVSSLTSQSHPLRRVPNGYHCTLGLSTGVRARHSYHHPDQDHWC

Consider `CCO` [ethanol], for which, at N-type calcium channel, the “binding sites for 125I-ω-conotoxin GVIA” value was “reversible time- and concentration-dependent increase”. Further, the “alcohol consumption, Cav2.2 null mice less than wild-type littermates” value in data set [1] is on record as “about 30%”. The conditioned place preference entry in data set [2] (Cav2.2 null mice, 2 g/kg ethanol) is reported as “completely absent”; in data set [2] (both genotypes, 1.2 g/kg and 2.8 g/kg ethanol), “Neither genotype showed place preference or aversion”; in data set [2] (inbred 129/SvJae background, Cav2.2 null), “no conditioned place preference”; in data set [2] (inbred 129/SvJae background, wild-type, ethanol 1.5 g/kg) it was “significant conditioned place preference”; in data set [2] (wild-type mice, 2 g/kg ethanol) it was “robust place preference”. Moreover, the “blood ethanol concentration at regaining righting reflex, Cav2.2 null vs wild-type” value in data set [3] (3.6 g/kg ethanol i.p.) is “higher blood ethanol concentration”. Moreover, the “decrease in duration of ethanol-induced LORR, Cav2.2 null vs wild-type” value in data set [3] (3.6 g/kg ethanol i.p.) was 70%. Further, in data set [3] (10% v/v ethanol i.p., up-and-down method), the “increase in threshold ethanol dose that induces LORR, Cav2.2 null vs wild-type” value is 16%. The “duration of ethanol-induced LORR” value in data set [3] (inbred 129/SvJae background, Cav2.2 null vs wild-type) was “decreased duration”. In addition, the “handling-induced convulsions during alcohol withdrawal” value in data set [4] was “increased handling-induced convulsions”. In addition, the “clearance of ethanol from the blood” value in data set [5] is recorded as “no difference between the genotypes”. Also, the “latency to fall, accelerating (4-40 rpm) rotarod” value in data set [6] is on record as “shorter latency to fall”. The “conditioned taste aversion to 1.2% NaCl” value in data set [7] (2 g/kg ethanol injection, both genotypes) is listed as “both genotypes rapidly developed conditioned taste aversion”. In addition, in data set [7] (2 g/kg ethanol, Cav2.2 null vs wild-type), the “magnitude of conditioned taste aversion” value is on record as “reduced”.
